≈ marks a conversion by molar mass, not a printed value. Read-outs that look alike come from different tables or passages of the source.
Assays:
[1] = test system: various wild type strains of P. aeruginosa; assay: MIC by broth microdilution (text summary over strains); format: cell-based; conditions: Pseudomonas aeruginosa, iron-deficient medium, read-out: MICs against various wild type strains of P. aeruginosa
Method: (§1) All liquids and media were sterilized by autoclaving (121° C., 15 min) before use. All aqueous solutions and media were prepared using distilled, deionized, and filtered water (Millipore Milli-Q Advantage A10 Water Purification System). Luria broth (LB) was purchased from VWR. Mueller-Hinton No. 2 broth (MHII broth; cation adjusted) was purchased from Sigma-Aldrich (St. Louis, Mo.). Iron-deficient (—Fe) MHII broth was prepared by adding 0.8 mL of a 1 mg/mL sterile aq. solution of 2,2′-bipyridine to 49.2 mL of MHII broth. Iron-rich (+Fe) MHII broth was prepared by adding 0.8 mL of a 1 mg/mL sterile aq. solution of FeCl3 to 49.2 mL of MHII broth. Mueller-Hinton No. 2 agar (MHII agar; HiMedia Laboratories) was purchased from VWR. Iron-deficient (−Fe) MHII agar was prepared by adding 0.5 mL of a 1 mg/mL sterile aq. solution of 2,2′-bipyridine to 34 mL of melted MHII agar with gentle mixing. Iron-rich (+Fe) MHII agar was prepared by adding 0.5 mL of a 1 mg/mL sterile aq. solution of FeCl3 to 34 mL of melted MHII agar with gentle mixing. See also Wencewicz, T. A. Dissertation, University of Notre Dame, Notre Dame, Ind., 2011, for relevant techniques.

[2] = test system: P. aeruginosa Pa4; assay: Agar diffusion antibacterial susceptibility assay; format: cell-based, Pseudomonas aeruginosa; design: key to Diameter of growth inhibition zones: partially clear inhibition zone/colonies in the inhibition zone; P: unclear inhibition zone/many colonies in the inhibition zone; indicates only a hint of growth inhibition detectable; conditions: 37° C.; for zone of inhibition at 200 µM / zone of inhibition at 100 µM: Pseudomonas aeruginosa, PA4, 24 h, read-out: Diameter of growth inhibition zones; for zone of inhibition at 200 µM / Diameter of growth inhibition zones: 50 μL of 0.2 mM solution; for Diameter of growth inhibition zones: 24 hours; for zone of inhibition at 100 µM: 50 μL of 0.1 mM solution
Method: as §1
(§2) Antibacterial Susceptibility Testing by the Agar Diffusion Assay.
(§3) Antibacterial activity of the compounds was determined by a modified Kirby-Bauer agar diffusion assay. Overnight cultures of test organisms were grown in LB broth for 18-24 h and standard suspensions of […] were prepared in saline solution (0.9% NaCl) according to a 0.5 BaSO4 McFarland Standard. This standardized suspension (0.1 mL) was added to 34 mL of sterile, melted agar (−Fe or +Fe) tempered to 47-50° C. After gentle mixing, the inoculated agar media was poured into a sterile plastic petri dish (145 mm×20 mm) and allowed to solidify near a flame with the lid ajar for about 30 min. Wells of 9.0 mm diameter were cut from the petri dish agar and filled with exactly 50 μL of the test sample solution. The petri dish was incubated at 37° C. for 18-24 h and the inhibition zone diameters were measured (mm) with an electronic caliper after 24 h.

[3] = test system: collection of strains of P. aeruginosa; assay: Agar well diffusion test (several strains); format: cell-based, Pseudomonas aeruginosa; conditions: KW799/wt, PAO1, Pa4, and Pa6; Table 1
Method: Conjugates 10 and 11 were first evaluated for their antibacterial ability against a collection of strains of P. aeruginosa using the agar well diffusion test. The influence of iron concentration on antibacterial activity was probed as well by conducting assays in iron-rich and iron-deficient media.
as §1, §2, §3

[4] = test system: E. coli H1876 (fepA−, cir−, fiu−); assay: Agar diffusion antibacterial susceptibility assay; format: cell-based, Escherichia coli; conditions: for Diameter of growth inhibition zones: E. coli H1876 (fepA−, cir−, fiu−), −Fe agar, 37° C., 24 hours; for zone of inhibition at 200 µM: Escherichia coli, 24 h, read-out: Diameter of growth inhibition zones
Method: as §1, §2, §3

[5] = test system: E. coli H1443 (fepA+, cir+, fiu+); assay: Agar diffusion antibacterial susceptibility assay; format: cell-based; conditions: Escherichia coli, 24 h, 37° C., read-out: Diameter of growth inhibition zones; for zone of inhibition at 100 µM: 50 μL of 0.1 mM solution; for zone of inhibition at 200 µM: 50 μL of 0.2 mM solution
Method: as §1, §2, §3

## CC1(C)S[C@@H]2[C@H](NC(=O)[C@H](N)c3ccc(O)cc3)C(=O)N2[C@H]1C(=O)O [Amoxicillin, reference compound]
[1]
  MIC: > 100 µM
[2]; +Fe agar
  zone of inhibition at 200 µM: 0 mm
[2]; −Fe agar
  Diameter of growth inhibition zones: h
[3]
  activity against wild type strains of P. aeruginosa (agar diffusion, in words): inactive or only weakly active
[4]; 50 μL of 0.2 mM solution
  Diameter of growth inhibition zones: 0 mm
[4]
  zone of inhibition at 200 µM: 0 mm

## CC1(C)S[C@@H]2[C@H](NC(=O)[C@H](N)c3ccccc3)C(=O)N2[C@H]1C(=O)O [Ampicillin, reference compound]
[1]
  MIC: > 100 µM
[2]; +Fe agar
  zone of inhibition at 200 µM: 0 mm
[2]; −Fe agar
  Diameter of growth inhibition zones: h
[3]
  activity against wild type strains of P. aeruginosa (agar diffusion, in words): inactive or only weakly active
[4]; 50 μL of 0.2 mM solution
  Diameter of growth inhibition zones: 0 mm
[4]
  zone of inhibition at 200 µM: 0 mm

## CC(=O)Oc1cccc(C(=O)NCCCC(CCCNC(=O)c2cccc(OC(C)=O)c2OC(C)=O)(CCCNC(=O)c2cccc(OC(C)=O)c2OC(C)=O)NC(=O)CCC(=O)NC(C(=O)NC2C(=O)N3C2SC(C)(C)C3C(=O)O)c2ccccc2)c1OC(C)=O (stereo not drawn) [Compound 10]
[1]
  MIC: 0.05 to 0.39 µM (≈ 0.0647 to 0.505 µg/mL)
[2]; +Fe agar
  zone of inhibition at 100 µM: 0 mm
[2]; −Fe agar
  zone of inhibition at 100 µM: 18 mm
[4]; 50 μL of 0.1 mM solution
  Diameter of growth inhibition zones: 0 mm
[5]; +Fe agar
  zone of inhibition at 100 µM: 0 mm
[5]; −Fe agar
  zone of inhibition at 100 µM: 19 mm

## CC(=O)Oc1cccc(C(=O)NCCCC(CCCNC(=O)c2cccc(OC(C)=O)c2OC(C)=O)(CCCNC(=O)c2cccc(OC(C)=O)c2OC(C)=O)NC(=O)CCC(=O)NC(C(=O)NC2C(=O)N3C2SC(C)(C)C3C(=O)O)c2ccc(O)cc2)c1OC(C)=O (stereo not drawn) [Compound 11]
[1]
  MIC: 0.05 to 0.39 µM (≈ 0.0655 to 0.511 µg/mL)
[2]; +Fe agar
  zone of inhibition at 200 µM: 0 mm
[2]; −Fe agar
  zone of inhibition at 200 µM: 20 mm
[4]; 50 μL of 0.2 mM solution
  Diameter of growth inhibition zones: 14p
[5]; +Fe agar
  zone of inhibition at 200 µM: 0 mm
[5]; −Fe agar
  zone of inhibition at 200 µM: 21 mm

— US9302012B2, “Anti-bacterial siderophore-aminopenicillin conjugates” (University of Notre Dame Du Lac, priority 2012, dated 2016)
